# Test results from US20100240642A1, “1H-Indole-2-Carboxylic Acid Derivatives Useful As PPAR Modulators” (SMITHKLINE BEECHAM CORPORATION, priority 2006, published 2010).
# Structures can show the parent of a compound that is named as a salt.
# Molecular target: T1, hPPARγ receptor (Homo sapiens, UniProt P37231)
# T1 construct: expressed in transfected cells; host or cells: CV-1 (African Green Monkey kidney, ATCC CCL-70)
# T1 sequence (P37231 172-475 isoform P37231-2): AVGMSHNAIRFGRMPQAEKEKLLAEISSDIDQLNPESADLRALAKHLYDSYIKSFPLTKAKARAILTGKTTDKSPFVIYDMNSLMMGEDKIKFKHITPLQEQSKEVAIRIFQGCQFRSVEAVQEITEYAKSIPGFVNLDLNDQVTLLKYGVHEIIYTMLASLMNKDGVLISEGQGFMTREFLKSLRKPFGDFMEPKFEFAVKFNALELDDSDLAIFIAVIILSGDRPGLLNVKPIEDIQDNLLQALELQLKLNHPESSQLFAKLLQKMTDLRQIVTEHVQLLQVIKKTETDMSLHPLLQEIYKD
# Test: PPARγ Cell-based luciferase assay
# Details: CV-1 cells transfected with GAL4-hPPARγ LBD and UAStkLuc; at concentrations of 10^−6 M or less; read-out: agonism of the hPPARγ receptor (activation relative to full agonist rosiglitazone)
# From the text: Plasmids—PCR primers containing Kpnl and BamHI restriction sites were used to amplify PPARγ ligand binding domain (LBD) fragment (172-475) from a full-length human clone. The LBD fragment was ligated into the multiple cloning site of pFA-CMV (Stratagene). The resulting construct (pFA-CMV-GAL4-hPPARγLBD carried a fusion of the LBD with the yeast-derived GAL4 DNA-binding domain under the control of the CMV immediate early promoter. Reporter construct UAStkLuc carries a single 17 bp (CGGAGTACTGTCCTCCG) upstream activating sequence (UAS), the tk minimal promoter, and the firefly luciferase gene. The integrity of each construct was confirmed by diagnostic restriction digestion and by sequencing. Plasmid DNA was prepared using Qiagen Maxi-Prep kits.
# PPARγ Cell-based luciferase assay—African Green Monkey kidney cell line CV-1 (ATCC CCL-70) was maintained in Dulbecco's Modified Eagle's Medium (D-MEM) containing 10% fetal bovine serum, 2 mM glutamine, and 1% penicillin/streptomycin (pen/strep). In preparation for luciferase assays, CV-1 cells were grown in charcoal-stripped cell medium containing D-MEM/F-12 medium supplemented with 5% or 3% dextran-treated/charcoal-stripped (CS) fetal bovine serum, 2 mM glutamine, with or without 1% pen/strep, as described below. CS fetal bovine serum was purchased from Hyclone; all other cell culture reagents were from Gibco.
# The luciferase protocol is a multi-day procedure. On day 1, confluent cells in maintenance medium were subcultured 1:10 into T-175 cm^2 flasks containing 50 mL of 3% CS medium with pen/strep. These flasks were allowed to incubate at 5% CO2 and 37° C. for 72 hours.
# Cells were harvested by trypsinization and then transfected using FuGENE (Roche) according to the manufacturer's specifications. Briefly, each transfection contained 0.55 μg pFA_CMV_GAL4_hPPARγ_LBD plasmid, 10.9 μg UAStkLUC, and 24 μg pBluescript (carrier DNA). Plasmid DNA was mixed with FuGENE in OptiMEM-1 medium and incubated for 30 min at room temperature. During this incubation, cells were harvested into 3% CS medium without pen-strep and dispensed at 14 million cells per T-175 cm^2 flask. Transfection mixes were added to the flasks and incubated overnight at 5% CO2 and 37° C.
# Transfected cells were added to 384-well plates containing pharmacological agents. Rosiglitazone standard was reconstituted in DMSO at 1 mM. For 11-point dose-response experiments, the compounds were 3-fold serially diluted in DMSO and then stamped to 384-well assay plates (NUNC, catalog #164564) at 0.5 μL/well using a Beckman FX. DMSO and agonist control compound Rosiglitazone (1 mM) were each stamped at 0.5 μL/well to columns 23 and 24, respectively, of the 384-well plates. Transfected cells were harvested in 5% CS medium with pen/strep and dispensed at 10,000 cells/well (50 μL) onto the prepared 384-well compound plates using a Titertek Multidrop. Following overnight incubation at 5% CO2 and 37° C., Steady-Glo reagent (Promega) was added to the assay plates using a Multidrop. Plates were incubated for 10 min to ensure complete cell lysis and read in a ViewLux (PerkinElmer). […] Partial agonism is defined here as 20-80% activation (relative to full agonist rosiglitazone) at concentrations of 10^−6 M or less.
row,Structure (SMILES),Emax [%]
1,"CC(C)(C)c1ccc(-c2c(C(=O)O)n(Cc3cccc(N4CCN(S(C)(=O)=O)CC4)c3)c3ccccc23)cc1 [Example 34, 3-[4-(1,1-dimethylethyl)phenyl]-1-({3-[4-(methylsulfonyl)-1-piperazinyl]phenyl}methyl)-1H-indole-2-carboxylic acid]",20 to 80
2,"CN(C)CCCOc1cc(Cn2c(C(=O)O)c(Cc3cccc(C(F)(F)F)c3)c3ccccc32)cc(OCC2CC2)c1 [Example 57, 1-[(3-[(cyclopropylmethyl)oxy]-5-{[3-(dimethylamino)propyl]oxy}phenyl)methyl]-3-{[3-(trifluoromethyl)phenyl]methyl}-1H-indole-2-carboxylic acid hydrochloride]",20 to 80
3,"CNC(=O)c1cccc(-c2ccc(C)c(Cn3c(C(=O)O)c(-c4ccc(C(C)(C)C)cc4)c4ccccc43)c2)c1 [Example 29, 3-[4-(1,1-dimethylethyl)phenyl]-1-({4-methyl-3′-[(methylamino)carbonyl]-3-biphenylyl}methyl)-1H-indole-2-carboxylic acid]",20 to 80
4,Cc1ccc(-c2cccc(C(=O)NCCc3cccs3)c2)cc1Cn1c(C(=O)O)c(-c2ccc(C(C)(C)C)cc2)c2ccccc21 [Example 31],20 to 80
5,"CC(=O)N1CCN(c2cccc(Cn3c(C(=O)O)c(-c4ccc(C(C)(C)C)cc4)c4ccccc43)c2)CC1 [Example 35, 1-{[3-(4-acetyl-1-piperazinyl)phenyl]methyl}-3-[4-(1,1-dimethylethyl)phenyl]-1H-indole-2-carboxylic acid]",20 to 80
6,"CC(C)(C)c1ccc(-c2c(C(=O)O)n(Cc3cccc(-c4cccc(S(C)(=O)=O)c4)c3)c3ccccc23)cc1 [Example 25, 3-[4-(1,1-dimethylethyl)phenyl]-1-{[3′-(methylsulfonyl)-3-biphenylyl]methyl}-1H-indole-2-carboxylic acid]",20 to 80
7,"CN(C)CCCOc1cc(Cn2c(C(=O)O)c(-c3ccc(C(C)(C)C)cc3)c3ccccc32)cc(OCC2CC2)c1 [Example 43, 1-[(3-[(cyclopropylmethyl)oxy]-5-{[3-(dimethylamino)propyl]oxy}phenyl)methyl]-3-[4-(1,1-dimethylethyl)phenyl]-1H-indole-2-carboxylic acid]",20 to 80
8,"CC(C)(C)c1ccc(-c2c(C(=O)O)n(Cc3cc(OCc4ccccc4)cc(-c4ccc(C(=O)O)cc4)c3)c3ccccc23)cc1 [Example 19, 1-({4′-carboxy-5-[(phenylmethyl)oxy]-3-biphenylyl}methyl)-3-[4-(1,1-dimethylethyl)phenyl]-1H-indole-2-carboxylic acid]",20 to 80
9,"COCCOc1cc(Cn2c(C(=O)O)c(Oc3ccc(C(C)(C)C)cc3)c3ccccc32)cc(OCCOC)c1 [Example 61, 1-[(3,5-bis{[2-(methyloxy)ethyl]oxy}phenyl)methyl]-3-{[4-(1,1-dimethylethyl)phenyl]oxy}-1H-indole-2-carboxylic acid]",20 to 80
10,"Cc1ccc(-c2ccc(C(=O)N(C)C)cc2)cc1Cn1c(C(=O)O)c(-c2ccc(C(C)(C)C)cc2)c2ccccc21 [Example 28, 1-({4′-[(dimethylamino)carbonyl]-4-methyl-3-biphenylyl}methyl)-3-[4-(1,1-dimethylethyl)phenyl]-1H-indole-2-carboxylic acid]",20 to 80
11,"COCCOc1cc(Cn2c(C(=O)O)c(Cc3cccc(C(F)(F)F)c3)c3ccccc32)cc(OCCOC)c1 [Example 58, 1-[(3,5-bis{[2-(methyloxy)ethyl]oxy}phenyl)methyl]-3-{[3-(trifluoromethyl)phenyl]methyl}-1H-indole-2-carboxylic acid]",20 to 80
12,"CC(C)(C)c1ccc(-c2c(C(=O)O)n(Cc3cccc(N4CCS(=O)(=O)CC4)c3)c3ccccc23)cc1 [Example 45, 3-[4-(1,1-dimethylethyl)phenyl]-1-{[3-(1,1-dioxido-4-thiomorpholinyl)phenyl]methyl}-1H-indole-2-carboxylic acid]",20 to 80
13,"CSc1ccc(-c2cccc(Cn3c(C(=O)O)c(-c4ccc(C(C)(C)C)cc4)c4ccccc43)c2)cc1 [Example 23, 3-[4-(1,1-dimethylethyl)phenyl]-1-{[4′-(methylthio)-3-biphenylyl]methyl}-1H-indole-2-carboxylic acid]",20 to 80
14,"Cc1ccc(-c2cccc(C(=O)NCc3cccs3)c2)cc1Cn1c(C(=O)O)c(-c2ccc(C(C)(C)C)cc2)c2ccccc21 [Example 30, 3-[4-(1,1-dimethylethyl)phenyl]-1-[(4-methyl-3′-{[(2-thienylmethyl)amino]carbonyl}-3-biphenylyl)methyl]-1H-indole-2-carboxylic acid]",20 to 80
15,"CC(C)CCOc1cc(Cn2c(C(=O)O)c(-c3ccc(C(C)(C)C)cc3)c3ccccc32)cc(OCC2CC2)c1 [Example 6, 1-({3-[(cyclopropylmethyl)oxy]-5-[(3-methylbutyl)oxy]phenyl}methyl)-3-[4-(1,1-dimethylethyl)phenyl]-1H-indole-2-carboxylic acid]",20 to 80
16,"COCCOc1cc(Cn2c(C(=O)O)c(-c3ccc(C(C)(C)C)cc3)c3ccccc32)cc(OCc2ccccc2)c1 [Example 67, 3-[4-(1,1-dimethylethyl)phenyl]-1-({3-{[2-(methyloxy)ethyl]oxy}-5-[(phenylmethyl)oxy]phenyl}methyl)-1H-indole-2-carboxylic acid]",20 to 80
17,"CC(C)(C)c1ccc(-c2c(C(=O)O)n(Cc3cc(OCC4CC4)cc(-c4ccc(C(=O)O)cc4)c3)c3ccccc23)cc1 [Example 15, 1-({4′-carboxy-5-[(cyclopropylmethyl)oxy]-3-biphenylyl}methyl)-3-[4-(1,1-dimethylethyl)phenyl]-1H-indole-2-carboxylic acid]",20 to 80
18,"CCOC(=O)N1CCN(c2cccc(Cn3c(C(=O)O)c(-c4ccc(C(C)(C)C)cc4)c4ccccc43)c2)CC1 [Example 46, 3-[4-(1,1-dimethylethyl)phenyl]-1-[(3-{4-[(ethyloxy)carbonyl]-1-piperazinyl}phenyl)methyl]-1H-indole-2-carboxylic acid]",20 to 80
19,"CC(C)(C)c1ccc(-c2c(C(=O)O)n(Cc3cccc(N4CCN(S(N)(=O)=O)CC4)c3)c3ccccc23)cc1 [Example 39, 1-({3-[4-(aminosulfonyl)-1-piperazinyl]phenyl}methyl)-3-[4-(1,1-dimethylethyl)phenyl]-1H-indole-2-carboxylic acid]",20 to 80
20,"CC(C)(C)c1ccc(-c2c(C(=O)O)n(Cc3cc(OCC4CC4)cc(C(F)(F)F)c3)c3ccccc23)cc1 [Example 65, 1-{[3-[(cyclopropylmethyl)oxy]-5-(trifluoromethyl)phenyl]methyl}-3-[4-(1,1-dimethylethyl)phenyl]-1H-indole-2-carboxylic acid]",20 to 80
21,"COCCOc1cc(Cn2c(C(=O)O)c(Nc3ccc(C(C)(C)C)cc3)c3ccccc32)cc(OCCOC)c1 [Example 62, 1-[(3,5-bis{[2-(methyloxy)ethyl]oxy}phenyl)methyl]-3-{[4-(1,1-dimethylethyl)phenyl]amino}-1H-indole-2-carboxylic acid]",20 to 80
22,"CC(C)(C)c1ccc(-c2c(C(=O)O)n(Cc3cccc(-c4ccc(OCc5ccccc5)cc4)c3)c3ccccc23)cc1 [Example 8, 3-[4-(1,1-dimethylethyl)phenyl]-1-({4′-[(phenylmethyl)oxy]-3-biphenylyl}methyl)-1H-indole-2-carboxylic acid]",20 to 80
23,"CC(=O)c1ccc(-c2c(C(=O)O)n(Cc3cc(-c4ccc(C(=O)O)cc4)ccc3C)c3ccccc23)cc1 [Example 14, 3-(4-acetylphenyl)-1-[(4′-carboxy-4-methyl-3-biphenylyl)methyl]-1H-indole-2-carboxylic acid]",20 to 80
